Reference: patent US9062125B2, “Use of GIP for the treatment of disorders associated with dysfunctional synaptic transmission” (Innovation Ulster Limited, priority 2007, dated 2015)
Non-standard residues stand in square brackets, D forms with d. No end group written: not given here. *: point of attachment. mPEG = mini-PEG HO—(CH2—O—CH2)n—H, n about 3; Myristoyl = CCCCCCCCCCCCCC(=O)*

Experiments:
Set-up in all cases: species or system rat
[1] = tested on: Male Wistar rats; test: In vivo LTP in hippocampal CA1 (field EPSP slope), strong HFS protocol, icv injection
Source text: (§1) Male Wistar rats weighing 220-280 g were anaesthetised with urethane (ethyl carbamate, 1.8 g/kg, i.p.) for the duration of all experiments. The animals had been obtained from Harlan, United Kingdom (UK).
(§2) A cannula (22 gauge, 0.7 mm outer diameter, 11 mm in length, Bilaney, Kent, UK) was implanted (1.5 mm anterior to bregma, 0.5 mm lateral to the midline and 3.55 mm ventral) into the left hemisphere for intracerebroventricular (icv) injections. Electrodes (tungsten with Teflon coating, Bilaney, Kent, UK) were implanted unilaterally 3.4 mm posterior and 2.5 mm lateral to the midline, and the stimulating electrode 4.2 mm posterior to bregma and 3.8 mm lateral to the midline. […] Recordings of EPSPs were made from the stratum radiatum in the CA1 region of the right hippocampal hemisphere in response to stimulation of the Schaffer collateral/commissural pathway.
(§3) Field EPSPs were recorded on a computerised stimulating and recording unit (PowerLab, ADI instruments, UK) in which the trigger threshold was adjustable. The triggered unit activated a constant current stimulus isolation unit (Neurolog, UK). The data acquisition system was triggered simultaneously to record all events. Sampling speed was at 20 kHz recording of EPSPs.
(§4) The ‘strong’ high frequency stimulation (HFS) protocol for inducing LTP consisted of 3 trains of 200 stimuli, inter-stimulus interval 5 ms (200 Hz), inter-train interval 2 sec. […] The ‘weak’ HFS protocol for inducing LTP consisted of 10 trains of 10 stimuli, inter-stimulus interval 5 ms (200 Hz). The strong HFS was used to test the effects of peptides that impair LTP (beta-amyloid), and the weak HFS was used to test peptides that facilitate LTP. In this form of LTP, the control group is not potentiated at a maximal rate, and LTP can decay slowly over time.
(§5) Stimulation intensity was 70% of the maximum EPSP. LTP was measured as a % of baseline EPSP slope recorded over a 30 min period prior to drug injection and 60 min prior to application of HFS. Baseline was recorded for 30 min and averaged. This value was taken as 100% of the EPSP slope and all recoded values were normalised to this baseline value.
Beta-amyloid(25-35) and other peptides used in this study were synthetised on an Applied Biosystems automated peptides synthesiser (Model 432A) using standard solid-phase Fmoc protocols. […]
(§6) Each group consisted of 6 animals. Data were analysed using a repeated measures two-way ANOVA, or a repeated measures three level two-way ANOVA with post-hoc tests to discriminate between groups (PRISM, GraphPad software Inc, USA).

[2] = tested on: Male Wistar rats; test: In vivo LTP in hippocampal CA1 (field EPSP slope), weak HFS protocol, icv injection; conditions: 15 nmol icv, LTP induced 30 min post-injection, n=6
Source text: as §1, §2, §3, §4, §5
Beta-amyloid(25-35) and other peptides used in this study were synthetised on an Applied Biosystems automated peptides synthesiser (Model 432A) using standard solid-phase Fmoc protocols. Peptides were judged pure by reversed phase HPLC on a Waters Millennium 2010 chromatography system, and peptides were subsequently characterised using matrix-assisted laser desorption/ionisation time of flight (MALDI-TOF) mass spectrometry as described previously (Gengler et al., 2006; Hölscher et al., 2007). Peptides were stored in dry form and dissolved in double distilled water before the experiments. 5 μl of peptide solution was injected icv.
as §6

[3] = tested on: Male Wistar rats; test: In vivo prevention of beta-amyloid(25-35)-induced impairment of LTP in hippocampal CA1; conditions: n=6, FIG. 5
Source text: as §1
A cannula (22 gauge, 0.7 mm outer diameter, 11 mm in length, Bilaney, Kent, UK) was implanted (1.5 mm anterior to bregma, 0.5 mm lateral to the midline and 3.55 mm ventral) into the left hemisphere for intracerebroventricular (icv) injections. Electrodes (tungsten with Teflon coating, Bilaney, Kent, UK) were implanted unilaterally 3.4 mm posterior and 2.5 mm lateral to the midline, and the stimulating electrode 4.2 mm posterior to bregma and 3.8 mm lateral to the midline. […]
Field EPSPs were recorded on a computerised stimulating and recording unit (PowerLab, ADI instruments, UK) in which the trigger threshold was adjustable. […]
Stimulation intensity was 70% of the maximum EPSP. LTP was measured as a % of baseline EPSP slope recorded over a 30 min period prior to drug injection and 60 min prior to application of HFS. Baseline was recorded for 30 min and averaged. […]
Each group consisted of 6 animals. Data were analysed using a repeated measures two-way ANOVA, or a repeated measures three level two-way ANOVA with post-hoc tests to discriminate between groups (PRISM, GraphPad software Inc, USA). […]

[4] = 15 nmol icv, LTP induced 30 min post-injection, n=6

For “Ala(1)GIP: human GIP(1-42) in which Tyr at position 1 has been replaced with L-Ala (AAEGTFISDYSIAMDKIHQQDFVNWLLAQKGKKNDWKHNITQ; Synthetic analogue derived from human GIP(1-42))”, the “effect on long-term potentiation (LTP; change in EPSP) compared with control” value [1, 4] was “attenuated long-term potentiation (LTP) compared with control”.
In the case of “D-Ala(2)GIP: human GIP(1-42) in which L-Ala at position 2 has been replaced with D-Ala (Y[dA]EGTFISDYSIAMDKIHQQDFVNWLLAQKGKKNDWKHNITQ)”, the “effect on long-term potentiation (LTP; change in EPSP) compared with control” value [2] is reported as “enhanced long-term potentiation (LTP) compared with control”.
In the case of “GIP: Human gastric inhibitory polypeptide, full length 42 amino acid peptide, SEQ ID NO: 1 (YAEGTFISDYSIAMDKIHQQDFVNWLLAQKGKKNDWKHNITQ; listed as Homo sapiens)”, the “effect on long-term potentiation (LTP; change in EPSP) compared with control” value [2] is reported as “increased long-term potentiation (LTP) compared with control”.
“GIP[Lys(37)Myristic acid]: GIP analogue created by Myristic acid addition at an epsilon amino group of Lys(37) (YAEGTFISDYSIAMDKIHQQDFVNWLLAQKGKKNDWK(Myristoyl)HNITQ; UniProt P09681 52-93, looked up)” was tested, and the “effect on long-term potentiation (LTP; change in EPSP) compared with control” value [2] was “enhanced long-term potentiation (LTP) compared with control”.
For “GIP[mPEG]: C-terminal mini-PEGylated human GIP(1-42), polymer moiety HO—(CH2—O—CH2)n—H, n about 3 (YAEGTFISDYSIAMDKIHQQDFVNWLLAQKGKKNDWKHNITQ-mPEG; UniProt P09681 52-93, looked up)”, the “effect on long-term potentiation (LTP; change in EPSP) compared with control” value [2] was “enhanced long-term potentiation (LTP) compared with control”.
“N-AcGIP: N-terminally acetylated human GIP(1-42)” was tested, and the “effect on long-term potentiation (LTP; change in EPSP) compared with control” value [2] was “enhanced long-term potentiation (LTP) compared with control” and the “effect on βA(25-35)-induced impairment of LTP” value ([3]; 15 nmol icv, 100 nmol βA(25-35) injected 30 min later, LTP induced 15 min post-βA injection, p<0.001 vs βA group) was “attenuated the βA(25-35)-induced impairment of LTP”.
“Pro(3)GIP: human GIP(1-42) in which Glu at position 3 has been replaced with L-Pro (YAPGTFISDYSIAMDKIHQQDFVNWLLAQKGKKNDWKHNITQ; Synthetic analogue derived from human GIP(1-42))” was tested, and the “effect on long-term potentiation (LTP; change in EPSP) compared with control” value [1, 4] was “attenuated long-term potentiation (LTP) compared with control”.
In the case of “βA(25-35): beta-amyloid fragment 25-35, synthesised peptide used to impair LTP (GSNKGAIIGLM; Amyloid-beta protein 42; UniProt P05067 696-706, looked up, fragment) [reference compound]”, the “effect on long-term potentiation (LTP; change in EPSP) compared with control” value ([1]; 10 nmol icv, LTP induced 15 min post-injection, p<0.01, n=6, FIG. 2) is reported as “impaired long-term potentiation (LTP) compared with control”, the “effect on long-term potentiation (LTP; change in EPSP) compared with control” value ([1]; 100 nmol icv, LTP induced 15 min post-injection, p<0.005, n=6, FIG. 2) is reported as “LTP development was also impaired” and the “effect on LTP compared with control (Example 5 experiment)” value ([3]; 100 nmol icv alone, LTP induced 15 min post-injection, p<0.001) is reported as “difference between the βA(25-35) group and control”.
